For assay [1], the system named is Mycobacterium tuberculosis. In words: Antituberculosis activity against Mycobacterium tuberculosis H37Rv assessed as parasite growth inhibition at 25 ug/ml after 4 days by microplate alamar blue assay. It is filed as functional. To be noted: 96 h, read-out: GI.
Assay [2] can be described thus: Antiplatelet activity in rabbit platelets assessed as inhibition of PAF-induced platelet aggregation treated 5 mins before PAF challenge. To be noted: Oryctolagus cuniculus. The class given is functional, cell-based.
In assay [3] the test system is Salmonella enterica subsp. enterica. Kind of assay: Antibacterial activity against Salmonella Typhimurium EG10627 by radial diffusion assay. It is filed as functional, Salmonella enterica subsp. enterica serovar Typhimurium.
The test system is the same in assay [4]. In words: Antibacterial activity against Salmonella Typhimurium MS 7953 by radial diffusion assay. It is filed as functional, Salmonella enterica subsp. enterica serovar Typhimurium.
The subject of assay [5] is Mycobacterium tuberculosis. In words: Antituberculosis activity against Mycobacterium tuberculosis H37Rv assessed as parasite growth inhibition at 50 ug/ml after 4 days by microplate alamar blue assay. The class given is functional. To be noted: 96 h, read-out: GI.
Assay [6] relates to Salmonella enterica subsp. enterica. Kind of assay: Antibacterial activity against Salmonella Typhimurium ATCC 14028s by radial diffusion assay. It is filed as functional, Salmonella enterica subsp. enterica serovar Typhimurium.
The test system of assay [7] is Mycobacterium tuberculosis. Kind of assay: Antituberculosis activity against Mycobacterium tuberculosis H37Rv assessed as parasite growth inhibition at 100 ug/ml after 4 days by microplate alamar blue assay. The class given is functional. To be noted: 96 h, read-out: GI.
The next assay concerns Staphylococcus aureus. In words: Antibacterial activity against Staphylococcus aureus ATCC 65380 by radial diffusion assay. The class given is functional.
The test system of the next assay is Enterococcus faecalis. In words: Antibacterial activity against Enterococcus faecalis ATCC 29212 by radial diffusion assay. It is filed as functional.
The subject of the next assay is Escherichia coli. In words: Antibacterial activity against Escherichia coli ATCC 25922 by radial diffusion assay. It is filed as functional.

For `C=CCC1=C[C@]2(OC)C(=O)[C@@](OC)(C1=O)[C@H](c1cc(OC)c3c(c1)OCO3)[C@H]2C` [CINERIN A], in [1], the inhibition of growth at 25 µg/mL was 2.5%. Also, in assay [2], the IC50 is 16.8 µM. Further, the “growth inhibition (GI)” value (in [3]; in assay [4]; in assay [6]; in the assay on Staphylococcus aureus; in the assay on Enterococcus faecalis; with Escherichia coli) was under 30% throughout. The inhibition of growth at 50 µg/mL in assay [5] is 7.2%. Also, the inhibition of growth at 100 µg/mL in assay [7] is 8.1%.

For `C=CCC1=C[C@@]2(OC)[C@H](C)[C@@H](c3cc(OC)c4c(c3)OCO4)[C@H](C1=O)[C@@H]2O` [CINERIN B], the inhibition of growth at 25 µg/mL in assay [1] is 13.9%. Moreover, in assay [2], the IC50 was determined as 1.5 µM. For the same compound, the “growth inhibition (GI)” value (in assay [3]; in assay [4]; in assay [6]; with Staphylococcus aureus; with Enterococcus faecalis; in the assay with Escherichia coli) was under 30% in each case. Further, in [5], the inhibition of growth at 50 µg/mL amounted to 20.9%. Moreover, the inhibition of growth at 100 µg/mL in assay [7] turned out to be 19.5%.

As for `C=CCC1=C[C@]2(OC)[C@H](C)[C@@H](c3cc(OC)c4c(c3)OCO4)[C@](OC)(C1=O)[C@H]2O` [CINERIN C], the inhibition of growth at 25 µg/mL in [1] came out at 43.8%. The IC50 in assay [2] was found to be 1.1 µM. Besides, the “growth inhibition (GI)” value (in [3]; in [4]; in assay [6]; with Staphylococcus aureus; in the assay with Enterococcus faecalis; with Escherichia coli) was under 30% each time. The inhibition of growth at 50 µg/mL in [5] worked out at 49.8%. Besides, the inhibition of growth at 100 µg/mL in assay [7] is 49.4%.

For the compound `C=CCC1=C[C@@]2(OC)C(=O)[C@](OC)([C@H](c3cc(OC)c4c(c3)OCO4)[C@H]2C)[C@H]1O` [CINERIN D], the inhibition of growth at 25 µg/mL in assay [1] came to 1.3%. Also, the half-maximal inhibitory concentration (IC50) in assay [2] was 6.6 µM. The “growth inhibition (GI)” value (in assay [3]; in assay [4]; in assay [6]; in the assay on Staphylococcus aureus; in the assay on Enterococcus faecalis; in the assay with Escherichia coli) was under 30% throughout. Besides, in assay [5], the inhibition of growth at 50 µg/mL came out at 6.2%. In addition, the inhibition of growth at 100 µg/mL in assay [7] was 7.3%.

Take `C[C@@H]1C(=O)O[C@H]2[C@H](O)[C@@]34[C@H]5C[C@@H](C(C)(C)C)[C@]36[C@@H](OC(=O)[C@@H]6O)O[C@@]4(C(=O)O5)[C@@]12O` [GINKOLIDE B]: the IC50 in assay [2] stood at 0.93 µM.

Consider `NNC(=O)c1ccncc1` [ISONIAZID], for which the inhibition of growth at 25 µg/mL in assay [1] was determined as 94.2%.

As to `C=CCC1=C[C@@]2(OC)C(=CC1=O)O[C@H](c1ccc(OC)c(OC)c1)[C@H]2C` [KADSURENONE], the IC50 in assay [2] came out at 0.12 µM.

For `C=C1C[C@@]23CC[C@H]4[C@@](C)(CCC[C@@]4(C)C(=O)O)[C@@H]2CC[C@@H]1C3` [KAURENOIC ACID], the inhibition of growth at 25 µg/mL in assay [1] amounted to 88.6%. The “growth inhibition (GI)” value (in [3]; in assay [4]; in [6]; in the assay on Staphylococcus aureus; in the assay with Enterococcus faecalis; in the assay on Escherichia coli) was under 30% in each case. In addition, the inhibition of growth at 50 µg/mL in [5] was determined as 91.3%. The inhibition of growth at 100 µg/mL in [7] came to 94.2%.

Turning to `CO[C@H]1/C=C/O[C@@]2(C)Oc3c(C)c(O)c4c(O)c(c(/C=N/N5CCN(C)CC5)c(O)c4c3C2=O)NC(=O)/C(C)=C\C=C\[C@H](C)[C@H](O)[C@@H](C)[C@@H](O)[C@@H](C)[C@H](OC(C)=O)[C@@H]1C` [RIFAMPIN], the inhibition of growth at 25 µg/mL in [1] came out at 97.6%.

These data come from ChEMBL document CHEMBL1152390, “Macrophyllin-type bicyclo[3.2.1]octanoid neolignans from the leaves of Pleurothyrium cinereum” (J Nat Prod, 2009).
